Among the data in PubChem BioAssay (NCI) are TGI values, retold here.

Some test systems named below: SK-MEL-2 melanoma; SNB-75 CNS; ACHN renal; COLO 205 colon; KM12 colon; TK-10 renal; MDA-MB-231 breast; SNB-19 CNS; U251 CNS; SK-MEL-5 melanoma; HS 578T breast; NCI-H522 lung; SN12C renal; UACC-62 melanoma.
What all share (assay): NCI anticancer screen, dose series, 48 h

Each structure is given as a SMILES string.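 In this assay, cells in 96-well plates receive the compound at five concentrations for 48 hours. Endpoints are linearly interpolated between the surrounding concentrations. TGI: concentration producing complete growth inhibition.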

Turning to `Cc1cc2c(cc1C)[n+](=O)c(C(=O)c1ccccc1)c(C(F)(F)F)n2[O-]`, the TGI in the assay with SK-MEL-2 melanoma was 19.7 µM; in the assay with SNB-75 CNS, 10.7 µM; in the assay with ACHN renal it was 8.29 µM; with COLO 205 colon it was 2.95 µM; in the assay with KM12 colon, 5.1 µM; with TK-10 renal it was 12.7 µM. For the same compound, the TGI in the assay with MDA-MB-231 breast was 6.55 µM; in the assay with SNB-19 CNS, 15.5 µM; in the assay with U251 CNS, 16.4 µM; in the assay with SK-MEL-5 melanoma, 3.75 µM; in the assay on HS 578T breast it was 15.1 µM; with NCI-H522 lung it was 12.9 µM. The TGI in the assay on SN12C renal worked out at 10.2 µM; in the assay on UACC-62 melanoma, 7.72 µM.
